Measured values reported in patent US20200171026A1, “PROSTACYCLIN RECEPTOR AGONISTS FOR REDUCTION OF BODY FAT” (Allergan, Inc., priority 2017, published 2020).

What was measured:
human adipocytes = experiment: human adipocyte lipolysis assay (glycerol released into the medium); format: cell-based; conditions: for glycerol release / lipolytic activity in human adipocytes (FIG. 2): fully differentiated human adipocytes, 1 μM
Method: Two weeks after the initiation of differentiation, differentiated cells appeared rounded with large lipid droplets apparent in the cytoplasm, and were thereby considered mature adipocytes. At this time, the differentiation medium was washed out. Two days after washing out the differentiation agents, the mature adipocytes were treated with different concentrations of PGI2 receptor agonist compounds cicaprost, beraprost, FK-788 and selexipag. Lipolytic activity was assessed by the measurement of glycerol released into the medium from triglyceride breakdown. In this experiment, lipolysis was measured using a human adipocyte lipolysis assay kit (ZenBio, Inc., Research Triangle Park, N.C., Cat #LIP-1-SPF).
The data are provided in FIG. 1 and are expressed as fold induction over a buffer control (mature adipocytes treated with vehicle buffer in the absence of any agonist). Each data point on the graph in FIG. 1 represents the mean±SEM of 2 to 8 experiments.
The in vitro human adipocytes lipolysis results for cicaprost and FK-788 from Example 1 at the 1 μM concentration were compared to lipolysis induced by those compounds in ex vivo mouse adipocytes, which are commonly used to detect lipolytic activity.

[1] = tested on: fat in the triceps region; experiment: In vivo human study, topical ointment, body fat calipers in triceps region; conditions: human subjects; topical ointment 0.003%, 0.03% or 0.3% daily; 6 months
Description: The following experiment describes a randomized, double-blind study in human subjects to test whether compounds according to the present disclosure, including topical FK-788, reduces fat in the body of individuals.
Multiple human subjects (both male and female), for example, with body mass indices of 30 or more but otherwise healthy, are entered into a randomized double-blind study. Either the left or the right arm is randomized to receive topical FK-788; the other arm receives vehicle only. FK-788 is supplied in a petrolatum-based ointment (the vehicle) at a final concentration of 0%, 0.003%, 0.03% or 0.3%. Ointment containers are unlabeled as to the presence or concentration of FK-788.
Each day, subjects apply a thin film of ointment to the skin over the respective triceps while wearing new, clean surgical gloves. Subjects are instructed to refrain from washing the treated area for at least 8 hours and are instructed to refrain from wearing tight clothing or occlusive dressings that will come into contact with the treated area.
Body fat calipers are used to measure fat in the triceps region bilaterally on a weekly basis. The study continues for 6 months. […] As a result, this contemplated outcome will show, in vivo, that compounds according to the present invention, including FK-788, can reduce fat.

[2] = fold induction over buffer control

SMILES	glycerol release / lipolytic activity in human adipocytes (FIG. 2) (human adipocytes; [2])	fat in treated arm compared to vehicle-treated arm [1]	relative potency among the PGI2 receptor agonists tested (human adipocytes; human mature adipocytes, cicaprost, beraprost, FK-788 and selexipag compared)	increase in glycerol production (human adipocytes; human mature adipocytes, concentration of about 0.1 μM, fold induction over buffer control)
O=C(O)COc1cccc2c1CC[C@](O)(COC(=O)N(c1ccccc1)c1ccccc1)C2 [FK-788, 2-[[(6R)-6-[di(phenyl)carbamoyloxymethyl]-6-hydroxy-7,8-dihydro-5H-naphthalen-1-yl]oxy]acetic acid]	increased glycerol release	lower fat		
CCC#CC[C@H](C)[C@H](O)C#C[C@@H]1[C@H]2C/C(=C/COCC(=O)O)C[C@H]2C[C@H]1O [cicaprost, 2-[(2E)-2-[(3aS,4S,5R,6aS)-5-hydroxy-4-[(3S,4S)-3-hydroxy-4-methylnona-1,-6-diynyl]-3,3a,4,5,6,6a-hexahydro-1H-pentalen-2-ylidene]ethoxy]acetic acid]	increased glycerol release		most potent agonist	approximately 3 fold
